According to paper PMC8222254, “Self-assembly of an anion receptor with metal-dependent kinase inhibition and potent in vitro anti-cancer properties” (Nature Communications, 2021):
Several values for one entry are separate records, joined by “and”; a condition that tells them apart may be missing. Equal entries are not always repeated. Where two headings read alike, the source gives them in different places.

Tests used:
Experiment in all cases: Chemosensitivity, 96 h continuous exposure, MTT assay
Assay type in all cases: cell-based, human
HT-29 = conditions: for Selectivity index (ARPE19): IC50 ARPE-19 / IC50 HT29; for Selectivity index (MCF10A): IC50 MCF10A / IC50 HT29; for Relative potency (+ anion to no anion), Ratio + anion:no anion: ratio of IC50, HT29; for Selectivity indices relative to ARPE-19, Ratio + anion:no anion: ratio of SI (ARPE-19); for Selectivity indices relative to MCF10A, Ratio + anion:no anion: ratio of SI (MCF 10A)
Summary of the method: (§1)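 Cells seeded at 2 × 10^3/well (GBM1 3 × 10^3/well) and left overnight at 37 °C, then exposed continuously for 96 h to a range of compound concentrations (final DMSO 0.2%). Viability read by MTT, absorbance at 540 nm; IC50 taken from dose-response curves as concentration reducing cell growth by 50%.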

PSN1 = conditions: for Selectivity index (ARPE19): IC50 ARPE-19 / IC50 PSN1; for Selectivity index (MCF10A): IC50 MCF10A / IC50 PSN1; for IC50 / Selectivity indices relative to ARPE-19, Ratio + anion:no anion / Selectivity indices relative to MCF10A, Ratio + anion:no anion: PSN1; for Relative potency (+ anion to no anion), Ratio + anion:no anion: ratio of IC50, PSN1; for Selectivity indices relative to ARPE-19, Ratio + anion:no anion: ratio of SI (ARPE-19); for Selectivity indices relative to MCF10A, Ratio + anion:no anion: ratio of SI (MCF 10A)
Summary of the method: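 Growth inhibition is measured by MTT after cells are dosed for 96 h without washout. The 50% growth-reduction concentration is then interpolated from the curves.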

MiaPaCa2 = conditions: for Selectivity index (ARPE19): IC50 ARPE-19 / IC50 MiaPaCa2; for Selectivity index (MCF10A): IC50 MCF10A / IC50 MiaPaCa2; for IC50 / Selectivity indices relative to ARPE-19, Ratio + anion:no anion / Selectivity indices relative to MCF10A, Ratio + anion:no anion: MiaPaCa2; for Relative potency (+ anion to no anion), Ratio + anion:no anion: ratio of IC50, MiaPaCa2; for Selectivity indices relative to ARPE-19, Ratio + anion:no anion: ratio of SI (ARPE-19); for Selectivity indices relative to MCF10A, Ratio + anion:no anion: ratio of SI (MCF 10A)
Summary of the method: as §1

HCT116 p53-/- = conditions: for IC50 / Selectivity indices relative to ARPE-19, Ratio + anion:no anion / Selectivity indices relative to MCF10A, Ratio + anion:no anion: HCT116 p53-/-; for Selectivity index (ARPE19): IC50 ARPE-19 / IC50 HCT116 p53-/-; for Selectivity index (MCF10A): IC50 MCF10A / IC50 HCT116 p53-/-; for Relative potency (+ anion to no anion), Ratio + anion:no anion: ratio of IC50, HCT116 p53-/-; for Selectivity indices relative to ARPE-19, Ratio + anion:no anion: ratio of SI (ARPE-19); for Selectivity indices relative to MCF10A, Ratio + anion:no anion: ratio of SI (MCF 10A)
Summary of the method: as §1

[1] = HT29, mean of replicates, read-out: Mean IC50
[2] = HT29, read-out: Mean IC50 values
[3] = HT-29, single replicate, read-out: IC50 values for each replicate
[4] = mean of replicates, read-out: Mean IC50
[5] = single replicate, read-out: IC50 values for each replicate

Row | SMILES | IC50 (HT-29; [1]) [nM] | IC50 (HT-29; [2]) [nM] | IC50 (HT-29; [3]) | Selectivity index (ARPE19) (HT-29) | Selectivity index (MCF10A) (HT-29) | Relative potency (+ anion to no anion), Ratio + anion:no anion (HT-29) | Selectivity indices relative to ARPE-19, Ratio + anion:no anion (HT-29; HT29) | Selectivity indices relative to MCF10A, Ratio + anion:no anion (HT-29; HT29) | Selectivity index (ARPE19) (PSN1) | Selectivity index (MCF10A) (PSN1) | IC50 (PSN1; [4]) [nM] | IC50 (PSN1; read-out: Mean IC50 values) [nM] | IC50 (PSN1; [5]) | Relative potency (+ anion to no anion), Ratio + anion:no anion (PSN1) | Selectivity indices relative to ARPE-19, Ratio + anion:no anion (PSN1) | Selectivity indices relative to MCF10A, Ratio + anion:no anion (PSN1) | Selectivity index (ARPE19) (MiaPaCa2) | Selectivity index (MCF10A) (MiaPaCa2) | IC50 (HCT116 p53-/-; read-out: Mean IC50 values) [nM] | Selectivity index (ARPE19) (HCT116 p53-/-) | also measured
1 | O=P([O-])([O-])Oc1ccccc1.[Cu+2].[Cu+2].[Cu+2].c1ccc(-c2csc(NCCN(CCNc3nc(-c4ccccn4)cs3)CCNc3nc(-c4ccccn4)cs3)n2)nc1.c1ccc(-c2csc(NCCN(CCNc3nc(-c4ccccn4)cs3)CCNc3nc(-c4ccccn4)cs3)n2)nc1 [[L2Cu3(O3POPh)]4+] | 695 | 695 | 687 nM and 844 nM and 642 nM and 195 nM and 1590 nM and 213 nM | 165.81 | 74.07 | 3.25 | 0.674 | 0.328 | 536.00 | 239.43 | 215 | 215 | 195 nM and 219 nM and 229 nM | 0.0333 | 65.686 | 32.009 | 2.44 | 1.09 | 82 | 1405.37 | IC50 (MiaPaCa2; [4]): 47200 nM; IC50 (MiaPaCa2; read-out: Mean IC50 values): 47200 nM; IC50 (MiaPaCa2; [5]): 50100 nM and 44300 nM and 47100 nM; Relative potency (+ anion to no anion), Ratio + anion:no anion (MiaPaCa2): 4.00; Selectivity indices relative to ARPE-19, Ratio + anion:no anion (MiaPaCa2): 0.548; Selectivity indices relative to MCF10A, Ratio + anion:no anion (MiaPaCa2): 0.267; IC50 (HCT116 p53-/-; [4]): 82 nM; IC50 (HCT116 p53-/-; [5]): 80 nM and 86 nM; Selectivity index (MCF10A) (HCT116 p53-/-): 627.77; Relative potency (+ anion to no anion), Ratio + anion:no anion (HCT116 p53-/-): 0.60; Selectivity indices relative to ARPE-19, Ratio + anion:no anion (HCT116 p53-/-): 3.658; Selectivity indices relative to MCF10A, Ratio + anion:no anion (HCT116 p53-/-): 1.782
2 | O=P([O-])([O-])[O-].[Cu+2].[Cu+2].[Cu+2].c1ccc(-c2csc(NCCN(CCNc3nc(-c4ccccn4)cs3)CCNc3nc(-c4ccccn4)cs3)n2)nc1.c1ccc(-c2csc(NCCN(CCNc3nc(-c4ccccn4)cs3)CCNc3nc(-c4ccccn4)cs3)n2)nc1 [[L2Cu3(PO4)]3+] | 326 | 326 | 224 nM and 262 nM and 594 nM and 323 nM and 229 nM | 502.36 | 151.48 | 1.52 | 2.043 | 0.672 | 9.29 | 2.80 | 17600 | 17600 | 18400 nM and 18600 nM and 17500 nM and 15900 nM | 2.73 | 1.138 | 0.374 | 1.36 | 0.41 | 388 | 422.09 | IC50 (MiaPaCa2; [4]): 121000 nM; IC50 (MiaPaCa2; read-out: Mean IC50 values): 121000 nM; IC50 (MiaPaCa2; [5]): 108000 nM and 145000 nM and 109000 nM; Relative potency (+ anion to no anion), Ratio + anion:no anion (MiaPaCa2): 10.22; Selectivity indices relative to ARPE-19, Ratio + anion:no anion (MiaPaCa2): 0.305; Selectivity indices relative to MCF10A, Ratio + anion:no anion (MiaPaCa2): 0.100; IC50 (HCT116 p53-/-; [4]): 388 nM; IC50 (HCT116 p53-/-; [5]): 686 nM and 542 nM and 264 nM and 205 nM and 242 nM; Selectivity index (MCF10A) (HCT116 p53-/-): 127.27; Relative potency (+ anion to no anion), Ratio + anion:no anion (HCT116 p53-/-): 2.83; Selectivity indices relative to ARPE-19, Ratio + anion:no anion (HCT116 p53-/-): 1.099; Selectivity indices relative to MCF10A, Ratio + anion:no anion (HCT116 p53-/-): 0.361
3 | O=S(=O)([O-])[O-].[Cu+2].[Cu+2].[Cu+2].c1ccc(-c2csc(NCCN(CCNc3nc(-c4ccccn4)cs3)CCNc3nc(-c4ccccn4)cs3)n2)nc1.c1ccc(-c2csc(NCCN(CCNc3nc(-c4ccccn4)cs3)CCNc3nc(-c4ccccn4)cs3)n2)nc1 [[L2Cu3(SO4)]4+] | 188 | 188 | 88 nM and 240 nM and 182 nM | 639.95 | 264.53 | 0.88 | 2.602 | 1.173 | 246.54 | 101.91 | 488 | 488 | 449 nM and 779 nM and 235 nM | 0.0756 | 30.213 | 13.624 | 2.28 | 0.94 | 78 | 1542.44 | IC50 (MiaPaCa2; [4]): 52700 nM; IC50 (MiaPaCa2; read-out: Mean IC50 values): 52700 nM; IC50 (MiaPaCa2; [5]): 63700 nM and 63600 nM and 47200 nM and 43500 nM and 49700 nM and 48300 nM; Relative potency (+ anion to no anion), Ratio + anion:no anion (MiaPaCa2): 4.46; Selectivity indices relative to ARPE-19, Ratio + anion:no anion (MiaPaCa2): 0.512; Selectivity indices relative to MCF10A, Ratio + anion:no anion (MiaPaCa2): 0.231; IC50 (HCT116 p53-/-; [5]): 78 nM and 77 nM and 79 nM; Selectivity index (MCF10A) (HCT116 p53-/-): 637.59; Relative potency (+ anion to no anion), Ratio + anion:no anion (HCT116 p53-/-): 0.57; Selectivity indices relative to ARPE-19, Ratio + anion:no anion (HCT116 p53-/-): 4.015; Selectivity indices relative to MCF10A, Ratio + anion:no anion (HCT116 p53-/-): 1.810
4 | [Mn+2].[Mn+2].[Mn+2].c1ccc(-c2csc(NCCN(CCNc3nc(-c4ccccn4)cs3)CCNc3nc(-c4ccccn4)cs3)n2)nc1.c1ccc(-c2csc(NCCN(CCNc3nc(-c4ccccn4)cs3)CCNc3nc(-c4ccccn4)cs3)n2)nc1 [[L2Mn3]6+] |  |  |  |  |  |  |  |  |  |  |  |  |  |  |  |  |  |  | 1250 | 2.30 | IC50 (HCT116 p53-/-; 96 h, MTT, individual run, read-out: IC50 values for each replicate): 1560 nM and 785 nM and 1350 nM and 1280 nM; IC50 (HCT116 p53-/-; 96 h, MTT, mean of at least 3 independent experiments, read-out: Mean IC50): 1250 nM; SI (ARPE19) (HCT116 p53-/-; mean IC50 ARPE-19 / mean IC50 HCT116 p53-/-): 2.295
